Data as given in patent publication US6528496B1, “Compositions treating, preventing or reducing elevated metabolic levels” (priority 1992, dated 2003).
“Also recorded” adds a separate entry of the source.

Tests used:
serum MMA and HC [1] = experiment: Parenteral B12 treatment of geriatric outpatients with low and low/normal serum B12, response of serum MMA and HC (Example 3); type: in vivo, human; details: weekly injections of 1.0 mg B12
Description: A study was conducted with 152 elderly outpatient subjects to measure the prevalence of B12 deficiency in geriatric outpatients as determined by both low serum B12 levels and elevations of MMA and HC, and to determine the response to B12 treatment. Blood samples were obtained on 152 consecutive geriatric outpatients, ages 65-99. Control values were determined from 100 subjects, ages 17-65. The significance of the results marked as “**” in Table 2 are as follows: B12 levels of<200 pg/ml; folate<3.8 ng/ml; homocysteine>16.2 uM; MMA>271 nM; CT>342 nM; and 2-MCA>228 nM. Serum MMA, HC, CT, and 2-MCA levels were measured as described in Example 1. Serum B12 and folate were measured as described in Example 1 using a Corning Immophase kit (CIBA-Corning, Medfield, Mass.) with the normal range defined as 200-800 pg/ml for B12 and 3.8 ng/ml for folate. After evaluation, patients received weekly parenteral cyanocobalamin injections (1,000 ug IM) for 8 weeks, followed by monthly injections. Repeat laboratory and clinical assessments were administered at 8 weeks and at 6 months.
Patients with low and low/normal serum B12 levels were treated with weekly injections of 1.0 mg B12. […] It appears that the true prevalence of previously unrecognized B12 deficiency in this elderly population was at least 14.5%.

serum MMA and HC [2] = experiment: Parenteral B12 treatment of geriatric nursing home patients with serum B12<300 pg/ml, response of serum MMA and HC (Example 4); type: in vivo, human
Description: A study was conducted with 212 elderly nursing home patients to determine serum B12, folate, MMA, and HC levels (Table 3). The significance of the results shown in Table 3 marked with “**” are as described for Table 2 (Example 3). The control group consisted of 100 subjects between the ages of 17-65 years.

[3] = 2.0 mg oral dose, in the absence of intrinsic factor; cited from earlier work
[4] = parenteral 1 mg per week for 8 weeks, nursing home patients with serum B12<300 pg/ml

cyanocobalamin [B12]
effect on elevated metabolite levels (serum MMA and HC, FIGS. 4 and 5) (serum MMA and HC [1]): fall to or towards normal; also recorded: did not fully respond
effect on elevated serum HC levels (FIG. 10) (serum MMA and HC [2]; [4]): fall to or towards normal
effect on elevated serum MMA levels (FIG. 9) (serum MMA and HC [2]; [4]): fall to or towards normal
response of elevated metabolite levels to B12 treatment (serum MMA and HC [2]; some of the nursing home patients with elevated metabolite levels): did not fully respond
fraction of oral dose absorbed by diffusion [3]: approximately 1%
